Results from US10695347B2, “Pyrimidine derivative and use thereof” (Hubei Bio-Pharmaceutical Industrial Technological Institute …, priority 2015, dated 2020).

Key:
[1] = molecular target: ALK (Homo sapiens (Human), UniProt Q9UM73); assay: Inhibition of ALK kinase activity (Caliper mobility shift); format: biochemical
Method: (§1) Inhibition of Compound I Against ALK Kinase Activity
(§2) • I. Preparation of 1× kinase buffer and stop buffer
(§3) 1) 1× Kinase Buffer • 50 mM HEPES. pH 7.5 • 0.0015% Brij-35 • 10 mM MgCl2 • 2 mM DTT • 2) stop buffer • 100 mM HEPES, pH 7.5 • 0.015% Brij-35 • 0.2% Coating Reagent #3 • 50 mM EDTA
(§4) 2. Prepare a Compound Solution to be Tested • Step 2.1 Dilute the compound to 50× of the final desired highest inhibitor concentration in reaction by 100% DMSO. Transfer 100 μl of this compound dilution to a well in a 96-well plate. For example, if desired highest inhibitor concentration is 1 μM, then prepare 50 μM of compound DMSO solution in this step.
(§5) Step 2.2 Further dilute said compound dilution by 3-fold in series, thus obtain 10 concentrations.
(§6) Step 2.3 Add 100 μl of 100% DMSO to two empty wells for no compound control and no enzyme control in the same 96-well plate. Mark the plate as source plate.
(§7) Step 2.4 Prepare an intermediate plate
(§8) Transfer 10 μl of each compound from the source plate to a new 96-well plate as the intermediate plate.
(§9) Add 90 μl of 1× kinase buffer to each well of the intermediate plate. Mix the compounds in the intermediate plate for 10 min on a shaker.
(§10) Transfer 5 μl of each well from the 96-well intermediate plate to a 384-well plate in duplicate. For example, A1 of the 96-well plate is transferred to A1 and A2 of the 384-well plate. A2 of the 96-well plate is transferred to A3 and A4 of the 384-well plate, and so on.
(§11) 4.1 Prepare a 2.5× kinase solution
(§12) Add kinase in 1× kinase base buffer, thus obtain the 2.5× kinase solution.
(§13) 4.2 Prepare a 2.5× peptide solution
(§14) 4.3 In each well of the assay plate obtained in step 3, there was 5 μL of the compound in 10% DMSO.
(§15) 4.4 Transfer the 2.5× enzyme solution to the assay plate.
(§16) 4.5 Incubate at room temperature for 10 min.
(§17) 4.6 Transfer the 2.5× peptide solution to the assay plate.
(§18) 4.7 Kinase reaction and stop
(§19) Incubate at 28° C. for 20 min.
(§20) Add 25 μl of stop buffer to stop reaction.
(§21) Conversion rate of the kinase was read via the Caliper.
(§22) 6.1 Copy conversion data from Caliper program.
(§23) 6.2 Convert conversion values to inhibition values with the following formula: Percent inhibition=(max−conversion)/(max−min)*100
(§24) where “max” stands for DMSO control; and “min” stands for low control.
(§25) 6.3 Fit the data in XLfit excel add-in version 4.3.1 and obtain IC50 values according to the following formula: Y=Bottom+(Top−Bottom)/[…].

[2] = molecular target: ALK L1196M (Homo sapiens (Human), UniProt Q9UM73, L1196M); assay: Inhibition of ALK L1196M kinase activity (Caliper mobility shift); format: biochemical
Method: as §1, §2, §3, §4, §5, §6, §7, §8, §9, §10, §11, §12, §13, §14, §15, §16, §17, §18, §19, §20, §21, §22, §23, §24, §25

[3] = test system: Karpas299 cells; assay: Suppression of Karpas299 cell proliferation (CellTiter-Glo); format: cell-based; conditions: Homo sapiens, KARPAS-299, 72 h; 3 days incubation; read-out: Inhibition activity on Karpas299 cells IC50
Method: (§26) As the amount of ATP can indicate the number of living cells directly, the living cells in culture are able to be quantified by determining the ATP level. In our experiment, we use a living-cell testing kit to quantify the living cells, which utilizes UltraGlow luciferase to generate a stable glow signal in the presence of ATP which is produced by metabolism of living cells, such as respiration. Specifically, a reagent CellTiter-Glo™ was added into cell culture media, and then the luminescent intensity was determined to measure proliferation of cells, as the luminescent intensity is in direct proportion to the ATP level which correlates positively to the number of living cells. The test plate was tested with the Envision (PE).
Cell media: RPMI-1640 medium, fetal calf serum (FCS), antibiotics (Penicillin-Streptomycin)
Assay reagent: Cell Viability Assay Kit CellTiter-Glo
(§27) Others: a 96-well plate, a 384-well plate, DMSO
(§28) Step 3.1 Culturing test cells
Karpas 299 cells were plated into a black 384-well plate, with 2500 cells in 45 μl cell suspension per well. The plate was placed in a carbon dioxide incubator overnight.
(§29) Step 3.2 Preparation of the compounds to be tested
Each compound to be tested was dissolved in DMSO at 10 mM as the stock solution, which was left in a nitrogen-gas tank for storage.
After dilution of 10 μL stock solution (10 mM) into 2.5 mM as a starting working solution, 10 concentrations of the working solutions from 5 μM to 0.25 nM were obtained in duplicate by further dilution in 3-fold series with ECHO.
Step 3.3 Mixing the compound with the test cells
To each well of a new 96-well plate were added 49 μl medium and 1 μl of the compounds to be tested at individual working concentrations (10 concentrations in total). After oscillation,
5 μl of mixture in each well of the 96-well plate was transferred into corresponding wells in the 384-well plate in the step 3.1. The 384-well plate was incubated in the carbon dioxide incubator for 3 days.
To each well of the 384-well plate was added […] reagent Promega CellTiter-Glo. and incubated at room temperature for 10 minutes to stabilize the luminescence signal. The results were read with the PerkinElmer Envision Multi-mode Plate Reader.

[4] = test system: Ba/F3 EML4-ALK cells; assay: Suppression of Ba/F3 EML4-ALK cell proliferation (CellTiter-Glo); format: cell-based; conditions: Ba/F3 EML4-ALK, 72 h; 3 days incubation
Description: Cell media: RPMI-1640 medium, fetal calf serum (FCS), antibiotics (Penicillin-Streptomycin), IL-3, puromycin
Cell line: Ba/F3 EML4-ALK
Assay reagent: Cell Viability Assay Kit Celliter-Glo
as §27
as §26, with “in medium” for “in culture”, “a cell viability assay” for “a living-cell testing”, “was assayed by” for “was tested with”
as §28
Ba/F3 EML4-ALK cells were planted into a 384-well plate, with almost 300 cells per well. The plate was placed in a carbon dioxide incubator overnight.
as §29
10 concentrations of the working solutions were obtained in duplicate by dilution in 3-fold series with BRAVO.
Step 3.3 Mixing the compound to be tested with the test cells
The compounds to be tested at individual working concentrations were transferred into corresponding wells in the 384-well plate in the step 3.1, with 5 μM as the initial working concentration, and then the 384-well plate was incubated in the carbon dioxide incubator for 3 days.
To each well of the 384-well plate was added the reagent Promega CellTiter-Glo, and incubated at room temperature for 10 minutes to stabilize the luminescence signal. The results were read by the PerkinElmer Envision Multi-mode Plate Reader.

Sequence of ALK (Q9UM73 19-1620): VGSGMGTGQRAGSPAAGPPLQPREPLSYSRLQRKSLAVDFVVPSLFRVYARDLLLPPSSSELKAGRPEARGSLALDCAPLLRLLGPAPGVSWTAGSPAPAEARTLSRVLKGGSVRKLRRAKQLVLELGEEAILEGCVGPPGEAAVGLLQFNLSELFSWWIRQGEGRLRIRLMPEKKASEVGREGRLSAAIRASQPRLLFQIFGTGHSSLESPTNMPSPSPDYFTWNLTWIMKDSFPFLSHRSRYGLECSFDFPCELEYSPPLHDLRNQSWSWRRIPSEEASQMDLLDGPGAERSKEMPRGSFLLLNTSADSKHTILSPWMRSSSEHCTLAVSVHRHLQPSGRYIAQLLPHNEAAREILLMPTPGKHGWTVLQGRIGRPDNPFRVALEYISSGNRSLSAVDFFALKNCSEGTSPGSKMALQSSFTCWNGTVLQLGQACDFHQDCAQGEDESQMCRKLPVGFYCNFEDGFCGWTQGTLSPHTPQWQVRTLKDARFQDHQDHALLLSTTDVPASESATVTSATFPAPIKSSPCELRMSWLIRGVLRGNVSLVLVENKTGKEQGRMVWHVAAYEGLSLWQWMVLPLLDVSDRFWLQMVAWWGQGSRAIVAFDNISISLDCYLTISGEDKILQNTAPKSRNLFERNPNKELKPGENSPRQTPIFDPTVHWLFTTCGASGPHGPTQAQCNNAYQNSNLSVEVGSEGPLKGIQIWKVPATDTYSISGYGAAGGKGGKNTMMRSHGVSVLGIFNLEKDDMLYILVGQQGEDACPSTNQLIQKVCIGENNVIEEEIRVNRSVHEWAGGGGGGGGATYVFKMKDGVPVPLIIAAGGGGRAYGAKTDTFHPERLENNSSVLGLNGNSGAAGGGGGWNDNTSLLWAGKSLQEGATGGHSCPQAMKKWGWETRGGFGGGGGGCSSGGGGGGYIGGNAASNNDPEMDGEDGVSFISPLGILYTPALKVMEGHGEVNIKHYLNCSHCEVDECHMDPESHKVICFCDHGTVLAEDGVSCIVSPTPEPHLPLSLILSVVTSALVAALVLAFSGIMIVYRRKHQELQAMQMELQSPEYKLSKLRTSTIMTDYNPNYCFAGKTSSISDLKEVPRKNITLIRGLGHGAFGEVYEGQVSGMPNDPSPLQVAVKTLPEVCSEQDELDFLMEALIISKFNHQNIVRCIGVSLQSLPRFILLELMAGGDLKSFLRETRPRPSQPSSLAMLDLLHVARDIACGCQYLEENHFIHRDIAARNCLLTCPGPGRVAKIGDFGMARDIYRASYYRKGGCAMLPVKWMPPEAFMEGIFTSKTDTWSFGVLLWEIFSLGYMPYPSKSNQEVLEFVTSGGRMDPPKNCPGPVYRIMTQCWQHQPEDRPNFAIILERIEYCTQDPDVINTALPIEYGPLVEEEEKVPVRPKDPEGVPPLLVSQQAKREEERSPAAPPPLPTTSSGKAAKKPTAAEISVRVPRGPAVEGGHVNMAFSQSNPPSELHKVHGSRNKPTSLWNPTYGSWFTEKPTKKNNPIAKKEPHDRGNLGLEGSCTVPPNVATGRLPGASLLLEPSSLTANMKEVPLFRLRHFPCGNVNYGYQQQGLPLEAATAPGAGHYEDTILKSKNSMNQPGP
Sequence of ALK L1196M (Q9UM73 19-1620 L1196M): as the sequence (Q9UM73 19-1620) above, with L1178M counted along it

Row | Structure (SMILES) | IC50 [1] [nM] | IC50 [2] [nM] | IC50 [3] [nM] | IC50 [4] [nM]
1 | CC(C)Oc1cc(N2CCC(N(C)C)CC2)ccc1Nc1ncc(Cl)c(Nc2ccsc2S(=O)(=O)C(C)C)n1 [Compound I-82, 5-chloro-N^2-(4-(4-(dimethylamino)piperidin-1-yl)-2-isopropoxyphenyl)-N^4-(2-(isopropylsulfonyl)thiophen-3-yl) pyrimidine-2,4-diamine] | < 1 | < 1 | < 50 | 20 to 100
2 | COc1cc(C2=CCN(C)CC2)ccc1Nc1ncc(Cl)c(Nc2cccnc2S(=O)(=O)C(C)C)n1 [Compound I-84, 5-chloro-N^4-(2-(isopropylsulfonyl)pyridin-3-yl)-N^2-(2-methoxy-4-(1-methyl-1,2,3,6-tetrahydropyridin-4-yl)phenyl) pyrimidine-2,4-diamine] | 1 to 10 | 1 to 10 | < 50 | 20 to 100
3 | COc1cc(C2=CCN(C(C)C)CC2)ccc1Nc1ncc(Cl)c(Nc2cccnc2S(=O)(=O)C(C)C)n1 [Compound I-85, 5-chloro-N^2-(4-(1-isopropyl-1,2,3,6-tetrahydropyridin-4-yl)-2-methoxyphenyl)-N^4-(2-(isopropylsulfonyl)pyridin-3-yl) pyrimidine-2,4-diamine] | 1 to 10 | 1 to 10 | < 50 | 20 to 100
4 | COc1cc(C2=CCN(C(C)C)CC2)ccc1Nc1ncc(Cl)c(Nc2ccsc2S(=O)(=O)C(C)C)n1 [Compound I-86, 5-chloro-N^2-(4-(1-isopropyl-1,2,3,6-tetrahydropyridin-4-yl)-2-methoxyphenyl)-N^4-(2-(isopropylsulfonyl)thiophen-3-yl) pyrimidine-2,4-diamine] | < 1 | < 1 | < 50 | < 20
5 | COc1cc(N2CCN(C(C)C)CC2)c(C)cc1Nc1ncc(Cl)c(Nc2cccnc2S(=O)(=O)C(C)C)n1 [Compound I-88] | 1 to 10 | 1 to 10 | 50 to 100 | 20 to 100
6 | CC(C)Oc1cc(N2CCC(N(C)C)CC2)ccc1Nc1ncc(Cl)c(Nc2cccnc2S(=O)(=O)C(C)C)n1 [Compound I-91] | 1 to 10 | 1 to 10 | 50 to 100 | < 20
7 | CCOc1cc(N2CCC(N(C)C)CC2)ccc1Nc1ncc(Cl)c(Nc2cccnc2S(=O)(=O)C(C)C)n1 [Compound I-92] | 1 to 10 | 1 to 10 | 50 to 100 | < 20
